Reference: patent US11059800B2, “Dehydroleucodine derivatives and uses thereof” (Bioventures, LLC, priority 2013, dated 2021)

How the values were obtained:
RPMI-8226 = experiment: Single dose tumor cell growth inhibition, Leukemia RPMI-8226; assay type: cell-based; conditions: RPMI-8226, single dose 10 μM
Text: (§1) DHL is cytotoxic to various leukemia, colon cancer, CNS cancer and prostate cancer cell lines.

Log P octanol/water = assay type: physicochemical; conditions: experimentally determined
NCI-H460 = experiment: Single dose tumor cell growth inhibition, Non-Small Cell Lung Cancer NCI-H460; assay type: cell-based; conditions: NCI-H460, single dose 10 μM
Text: as §1

DU-145 = experiment: Single dose tumor cell growth inhibition, Prostate Cancer DU-145; assay type: cell-based, human; conditions: DU-145, single dose 10 μM
Text: as §1

HL-60 = experiment: Cytotoxicity, annexin V/7-AAD viability by flow cytometry, HL-60; assay type: cell-based, human; conditions: HL-60, 48 hours, drug range tested 1.25-160 μM
Protocol: (§2) In order to assess the structure-activity relationship of DHL and its derivatives, DHL and its derivatives were evaluated against eight human leukemia cell lines. Cell lines were cultured in Iscove's Modified Dulbecco's Medium (IMDM) supplemented with 10%˜20% fetal bovine serum (FBS) according to culture conditions indicated by ATCC and 1% penicillin/streptomycin (Pen/Strep) at 37° C. and 5% CO2. The cells were seeded into 96-well plates and kept at a concentration of 0.5 million cells per mL. The samples were treated with DHL, Leucodine, DHL-Morpholine, DHL-Proline, DHL-Piperidine, and PTL at varying concentrations in triplicates. Cell viability was determined after incubating for 48 hours. The cells were stained with annexin V-fluorescein isothiocyanate or phycoeritrine (FITC/PE) and 7-aminoactinomycin (7-AAD) to detect phosphatidylserine exposition and cell permeability, respectively. At least 50,000 events were recorded per condition on either an LSR-II or LSR-Fortessa flow cytometer (BD Biosciences). Data analysis was conducted using FlowJo 9.6 software for Mac OS X (TreeStar). Cells that were negative for annexin V and 7-AAD were scored as viable.

U251 = experiment: Single dose tumor cell growth inhibition, CNS Cancer U251; assay type: cell-based, human; conditions: U251, single dose 10 μM
Text: as §1

HMOX1 (Heme oxygenase 1) = experiment: Quantitative PCR of HMOX1 in MOLM-13 or MV-411 cells; assay type: cell-based; conditions: 20 μM, 6 hours, MOLM-13 and MV-411 cells
Protocol: (§3) (FIG. 8A) Graphical representation of the fold changes of HMOX-1 in MOLM-13 cells. Cells were seeded at 0.5 million cells per milliliter and subject to 20 μM of DHL, leucodine, DHL-proline, DHL-piperidine, DHL-morpholine, or parthenolide for 6 hours. RNA was then extracted and quantitative PCR was performed. Experiments were performed in triplicates. Lines represent mean for each specimen, with error bars representing the SD. Fold change was calculated by the delta-delta Ct method. […] (FIG. 8D) Immunoblot for MOLM-13 cells after 6 hours of treatment with either DHL or PTL with 10 or 20 μM. Blot was probed for phospho-p65 and p65 antibodies. Total p65 is shown as the loading control.
(§4) (FIG. 9A) Graphical representation of the fold changes of HMOX-1 in MV-411 cells. Cells were seeded at 0.5 million cells per milliliter and subject to 20 μM of DHL, leucodine, DHL-proline, DHL-piperidine, DHL-morpholine, or parthenolide for 6 hours. RNA was then extracted and quantitative PCR was performed. Experiments were performed in triplicates. Lines represent mean for each specimen, with error bars representing the SD. Fold change was calculated by the delta-delta Ct method. (FIG. 9B) Graphical representation of the fold changes of HSPA1A in MV-411 cells, with the same experimental setup and analysis as FIG. […].
(§5) To compare these intracellular effects of DHL and its derivatives, quantitative PCR was performed (FIG. 8 and FIG. 9). MOLM-13 or MV-411 cells were seeded at 0.5 million cells per milliliter. Cells were treated for 6 hours with 20 μM of DHL, Leucodine, DHL-Morpholine, DHL-Proline, DHL-Piperidine or PTL, and then collected. Total RNA was extracted using the Qiashredder and Qiagen Rneasy Mini kits. […] Quantitative PCR was performed using probes for HMOX-1 (Hs01110251_m1), HSPA1A (Hs00359163_s1), and NFKB1 (Hs00765730_m1). […] Single-plex real-time PCR was performed in triplicates in a StepOne plus RealTime PCR system and analyzed with the StepOne Software. Fold change was calculated using the 2-DDCT method described by Livak and Schmittgen.

HSPA1A = experiment: Quantitative PCR of HSPA1A in MOLM-13 or MV-411 cells; assay type: cell-based; conditions: 20 μM, 6 hours, MOLM-13 and MV-411 cells
Protocol: as §3, §4, §5

MV4-11 = experiment: Cytotoxicity, annexin V/7-AAD viability by flow cytometry, MV4-11; assay type: cell-based, human; conditions: MV4-11, 48 hours, drug range tested 1.25-160 μM
Protocol: as §2

SW-620 = experiment: Single dose tumor cell growth inhibition, Colon Cancer SW-620; assay type: cell-based, human; conditions: SW-620, single dose 10 μM
Text: as §1

[1] = test system: eight human leukemia cell lines
Protocol: Cell lines were cultured in Iscove's Modified Dulbecco's Medium (IMDM) supplemented with 10%˜20% fetal bovine serum (FBS) according to culture conditions indicated by ATCC and 1% penicillin/streptomycin (Pen/Strep) at 37° C. and 5% CO2. The cells were seeded into 96-well plates and kept at a concentration of 0.5 million cells per mL. […] Cell viability was determined after incubating for 48 hours. The cells were stained with annexin V-fluorescein isothiocyanate or phycoeritrine (FITC/PE) and 7-aminoactinomycin (7-AAD) to detect phosphatidylserine exposition and cell permeability, respectively. At least 50,000 events were recorded per condition on either an LSR-II or LSR-Fortessa flow cytometer (BD Biosciences). Data analysis was conducted using FlowJo 9.6 software for Mac OS X (TreeStar). Cells that were negative for annexin V and 7-AAD were scored as viable.

SK-OV-3 = experiment: Single dose tumor cell growth inhibition, Ovarian Cancer SK-OV-3; assay type: cell-based; conditions: SK-OV-3, single dose 10 μM
Text: as §1

TUR = experiment: Cytotoxicity, annexin V/7-AAD viability by flow cytometry, TUR; assay type: cell-based, human; conditions: 48 hours, drug range tested 1.25-160 μM
Protocol: as §2

C=C1C(=O)O[C@@H]2[C@H]3C(C)=CC(=O)C3=C(C)CC[C@@H]12 [DHL, dehydroleucodine]
Percent inhibition (RPMI-8226): 31.7% | Log P octanol/water (Log P octanol/water): 2.33 (±0.16) | Percent inhibition (NCI-H460): 0.0% | Percent inhibition (DU-145): 44.0% | LD50 (HL-60): 14.13 µM | Percent inhibition (U251): 30.0% | HMOX1 expression, fold change (HMOX1 (Heme oxygenase 1)): upregulated | HSPA1A expression, fold change (HSPA1A): upregulated | LD50 (MV4-11): 5.02 µM | Percent inhibition (SW-620): 30.0% | anti-leukemic activity / in vitro cytotoxicity [1]: more potent anti-leukemic activity than PTL in most samples | LD50 values in the various leukemic cell lines tested ([1]; range over the AML cell lines, 48 hours of treatment): 5.02 to 18.95 µM | Percent inhibition (SK-OV-3): 0.0% | LD50 (TUR): 12.18 µM
